The source of these data is patent US10676496B2, “Method for producing flavonoid inclusion compound” (TAIYO KAGAKU CO., LTD., priority 2017, dated 2020).

For data set [1] the following is noted: cited from earlier work.
Data set [2] can be described thus: Evaluation of storage stability (green tea). It counts as physicochemical. The settings on record: 0.03% as hesperetin-7-glucoside; for presence or absence of the precipitates, 4° C.: 7 days at 4° C.; for presence or absence of the precipitates, 25° C.: 7 days at 25° C. How it is done: Evaluation of Storage Stability (Green Tea)
Hesperidin (manufactured by Hamari Chemicals., Ltd.), hesperetin-7-glucoside (prepared in the following), a flavonoid inclusion compound of Example 22 or a composition of flavonoid glycosides of Example 40 was added to a commercially available green tea (“Oi Ocha,” manufactured by ITO EN, LTD.) so as to have a concentration calculated as 0.03% in terms of hesperetin-7-glucoside conversion. The mixture was allowed to stand for 7 days at 4° C. and 25° C., and the presence or absence of the precipitates was then visually observed.
Seven grams of Hesperidin (manufactured by Hamari Chemicals., Ltd.) was added to […] of an aqueous solution, and the solution was adjusted to 70° C. and a pH of 4.5. Thereafter, 0.5 g of naringinase (Amano Enzyme Inc. 155 u/g) was added thereto while stirring, and the solution was recovered and dried, to give 4.2 g of hesperetin-7-glucoside having a content of 96% or more. Identification as being hesperetin-7-glucoside and a content thereof were analyzed by NMR and HPLC in the same manner as mentioned above.

The nature of data set [3]: Evaluation of storage stability (lemon beverage). It counts as physicochemical. The settings on record: 0.3% as naringenin-7-glucoside; for presence or absence of the precipitates, 4° C.: 1 month at 4° C.; for presence or absence of the precipitates, 25° C.: 1 month at 25° C. The method, then: Evaluation of Storage Stability (Lemon Beverage)
Naringin (manufactured by SIGMA), naringenin-7-glucoside (prepared hereinbelow) or a flavonoid inclusion compound-containing composition of Example 109 was added to a commercially available lemon beverage (C1000 Lemon Water, manufactured by HOUSE […] FOODS CORPORATION) so as to have a concentration calculated as 0.3% in terms of naringenin-7-glucoside conversion, the beverage was allowed to stand for 1 month at 4° C. or 25° C., and the presence or absence of the precipitates was then visually observed.
After the termination of the reaction according to Comparative Example 102, the precipitates that were previously allowed to stand at room temperature were recovered, washed with water, recrystallized and dried, to give 13 g of naringenin-7-glucoside having a content of 95% or more. The identity of the product with a reagent naringenin-7-glucoside (Wako) by HPLC and a content thereof were analyzed.

A short description of data set [4]: Evaluation of bioavailability. It is filed as in vivo. The text has this: Evaluation of Bioavailability
Nine-week-old Wister rats (male) were given with MF (Oriental Yeast Co., Ltd.) and bred for 7 days, and the rats were then subjected to fasting from the day before the administration of a test substance. Thereafter, 100 μmol/kg (calculated as IQC) of a dried product of Example 16 prepared in the evaluation of the effects of preventing flavor deterioration, a rutin suspension (Alps Pharmaceutical Ind., Co., Ltd., 100 μmol/kg (calculated as IQC)), 1,000 μmol/kg (calculated as HPT-7G) of dried product of Example 22 prepared in the evaluations of the effects of preventing flavor deterioration, and a hesperidin suspension (Hamari Chemicals., Ltd., 1,000 μmol/kg (calculated as HPT-7G)) were orally administered to the rats in a single dose (orally administered by gavage, n=2). Blood collection into heparinized tubes was carried out from tail veins of rats 30 minutes, 1 hour and 3 hours after the administration, and the blood was centrifuged to obtain plasma. In the drawn sera sample, the amounts of quercetin derivatives were measured according to a method by Makino et al (Biol. pharm. Bull., 32(12) 2034, 2009), and the amounts of hesperetin derivatives were measured according to a method by Yamada et al (Biosci. Biotechnol. Biochem, 70(6), 1386, 2006), and analysis was made by applying the sample to high-performance liquid chromatography (SHIMADZU) and using a photodiode array detector (SPD-M30A, SHIMADZU).

Setting [5] is: compared with rutin, hesperidin, or naringin having a rhamnoside structure.

Like-named read-outs stand apart in the source and are kept apart here.

Take `O=C1C[C@@H](c2ccc(O)cc2)Oc2cc(O)cc(O)c21` [naringenin]: the bioavailability in rats entry in data set [1] (setting [5]) is “higher”.
As to `COc1ccc(C2CC(=O)c3c(O)cc(OC4OC(CO)C(O)C(O)C4O)cc3O2)cc1O` (stereo not drawn) [Hesperetin-7-Glucoside, hesperetin-7-glucoside], in data set [2], the “presence or absence of the precipitates, 4° C.” value (from here on “presence or absence … 4° C.”) is “x (those in which the precipitates were observed were evaluated as x)” and the “presence or absence of the precipitates, 25° C.” value (from here on “presence or absence … 25° C.”) is “x (those in which the precipitates were observed were evaluated as x)”. Also, in data set [1] (rat, in vivo), the bioavailability in rats result is recorded as “higher”.
`O=C1C[C@@H](c2ccc(O)cc2)Oc2cc(O[C@@H]3O[C@H](CO)[C@@H](O)[C@H](O)[C@H]3O)cc(O)c21` [Naringenin-7-glucoside, naringenin-7-glucoside]: in data set [3], the “presence or absence … 4° C.” value is “x (those in which the precipitates were observed were evaluated as x)” and the “presence or absence … 25° C.” value is “x (those in which the precipitates were observed were evaluated as x)”. Also, the bioavailability in rats entry in data set [1] (setting [5]) is recorded as “higher”.
On to `COc1ccc([C@@H]2CC(=O)c3c(O)cc(O[C@@H]4O[C@H](CO[C@@H]5O[C@@H](C)[C@H](O)[C@@H](O)[C@H]5O)[C@@H](O)[C@H](O)[C@H]4O)cc3O2)cc1O` [Hesperidin], for which the “presence or absence … 4° C.” value in data set [2] was “x (those in which the precipitates were observed were evaluated as x)”. In addition, in data set [2], the “presence or absence … 25° C.” value is recorded as “x (those in which the precipitates were observed were evaluated as x)”. In addition, the “AUC, hesperetin” value in data set [4] (rat plasma, single oral 1,000 μmol/kg (calculated as HPT-7G), 0 to 3 hours) was 0.082 µM·h. For the same compound, the Hesperetin concentration in data set [4] (rat plasma, single oral 1,000 μmol/kg (calculated as HPT-7G), time of blood drawing 0) is 0 µM; in data set [4] (rat plasma, single oral 1,000 μmol/kg (calculated as HPT-7G), time of blood drawing 0.5 (hours)), 0.003 µM; in data set [4] (rat plasma, single oral 1,000 μmol/kg (calculated as HPT-7G), time of blood drawing 1 (hour)), 0.064 µM; in data set [4] (rat plasma, single oral 1,000 μmol/kg (calculated as HPT-7G), time of blood drawing 3 (hours)), 0 µM.
In the case of `C[C@@H]1O[C@@H](O[C@H]2[C@H](Oc3cc(O)c4c(c3)O[C@H](c3ccc(O)cc3)CC4=O)O[C@H](CO)[C@@H](O)[C@@H]2O)[C@H](O)[C@H](O)[C@H]1O` [Naringin], in data set [3], the “presence or absence … 4° C.” value is listed as “x (those in which the precipitates were observed were evaluated as x)” and the “presence or absence … 25° C.” value is reported as “x (those in which the precipitates were observed were evaluated as x)”.
With `C[C@@H]1O[C@@H](OC[C@H]2O[C@@H](Oc3c(-c4ccc(O)c(O)c4)oc4cc(O)cc(O)c4c3=O)[C@H](O)[C@@H](O)[C@@H]2O)[C@H](O)[C@H](O)[C@H]1O` [Rutin Suspension, rutin], the “AUC, Total (quercetin and quercetin derivatives)” value in data set [4] (male, Wister, rat, in vivo, po, 100 umol/kg) amounted to 0.1 µM·h.
`O=c1c(O[C@@H]2O[C@H](CO)[C@@H](O)[C@H](O)[C@H]2O)c(-c2ccc(O)c(O)c2)oc2cc(O)cc(O)c12` [Isoquercitrin, isoquercitrin]: the bioavailability in rats entry in data set [1] (setting [5]) is on record as “higher”.
